According to ChEMBL document CHEMBL1177823, “7',8'-Dihydroobolactone, a typanocidal alpha-pyrone from the rainforest tree Cryptocarya obovata” (Bioorg Med Chem Lett, 2010):

Tests used:
HEK293 = experiment: Cytotoxicity against […] cells after 72 hrs by Alamar blue assay; type: cell-based; conditions: Homo sapiens, HEK293, 72 h
[1] = test system: Trypanosoma brucei brucei; experiment: Antitrypanosomal activity against Trypanosoma brucei brucei; type: functional, organism-based
[2] = Cytotoxicity against […] cells at 70 uM after 72 hrs by Alamar blue assay; type: cell-based; conditions: human, HEK293 cells; read-out: INH
HeLa = experiment: Cytotoxicity against human HeLa cells after 72 hrs by Alamar blue assay; type: functional, cell-based
[3] = Selectivity index, ratio of IC50 for HEK293 cells to IC50 for Trypanosoma brucei brucei; type: toxicity, cell-based; conditions: human, HEK293 cells versus Trypanosoma brucei brucei; read-out: Selectivity Index
A549 = experiment: Cytotoxicity against human A549 cells after 72 hrs by Alamar blue assay; type: functional, cell-based; conditions: A549, 72 h
[4] = test system: Trypanosoma brucei brucei; experiment: Antitrypanosomal activity against Trypanosoma brucei brucei at 167 uM; type: functional
MCF7 = experiment: Cytotoxicity against human MCF7 cells after 72 hrs by Alamar blue assay; type: functional, cell-based; conditions: MCF7, 72 h

SMILES | IC50 [1] [µM] | IC50 (HEK293) [µM] | cytotoxicity at 72 h, 70 µM [2] [%] | IC50 (HeLa) [µM] | selectivity ratio [3] | IC50 (A549) [µM] | inhibition at 167 µM [4] [%] | IC50 (MCF7) [µM]
COc1ccc(C[C@H](N)C(=O)N[C@H]2[C@@H](O)[C@H](n3cnc4c(N(C)C)ncnc43)O[C@@H]2CO)cc1 [PUROMYCIN] | 0.037 | 0.42 |  |  |  |  |  | 
O=c1ccc2cc3ccoc3cc2o1 [PSORALEN] |  | > 167 |  |  |  |  | 50.3 | 
N=C(N)c1ccc(/N=N/Nc2ccc(C(=N)N)cc2)cc1 [DIMINAZENE] | 0.025 | > 80 |  |  |  |  |  | 

More lines, main results first:

IC50 [1] [µM] | SMILES | IC50 (HEK293) [µM] | cytotoxicity at 72 h, 70 µM [2] [%] | IC50 (HeLa) [µM] | selectivity ratio [3] | IC50 (A549) [µM] | inhibition at 167 µM [4] [%] | IC50 (MCF7) [µM]
0.007 | N=C(N)c1ccc(OCCCCCOc2ccc(C(=N)N)cc2)cc1 [PENTAMIDINE] |  | 58.3 |  |  |  |  | 
2.8 | O=C1C=C(CCc2ccccc2)O[C@H](C[C@H]2CC=CC(=O)O2)C1 | 20.4 |  | 43 | 7.4 | 78 |  | 
5.3 | O=C1C=C(/C=C/c2ccccc2)O[C@H](C[C@H]2CC=CC(=O)O2)C1 [OBOLACTONE] | 13.2 |  | 24 | 2.5 | 43 |  | 32
